Measured values reported in patent publication US20260285909A1, “PEPTIDES FOR ANTIMICROBIAL THERAPY” (Karl-Franzens-Universität Graz, priority 2023, published 2026).

What was measured:
[1] = test system: E. coli ATCC25992; experiment: Antimicrobial activity (LC99.9), killing in PBS with plating; format: cell-based, Escherichia coli; details: Gram-negative bacteria, lowest peptide concentration that killed ≥99.9% of bacteria, 37° C.
Procedure: (§1) In the context of the present invention, the test whether a peptide has an antimicrobial activity which is higher than the antimicrobial activity of peptide OP-145 (acetyl-[…]-amide (SEQ ID NO: 50)) may be performed according to any method known in the art, as for instance disclosed in Balouiri et al, 2016. In particular, S. aureus JAR060131, Enterococcus hirae ATCC 10541, Bacillus subitlis 168C trpC2 or Escherichia coli ATCC25992 are cultured to mid-logarithmic phase in tryptic soy broth, brain heart infusion (BHIB), mueller hinton (MHB) or luria broth (LB) and washed once with PBS. […] Thereafter, the number of viable bacteria is determined by plating on diagnostic sensitivity agar. Antimicrobial activity is expressed as the 99.9% killing concentration (LC99.9), i.e., the lowest peptide concentration that killed ≥99.9% of bacteria. […]
(§2) Antimicrobial activity: S. aureus JAR060131, Enterococcus hirae ATCC 10541, Bacillus subitlis 168C trpC2, Escherichia coli ATCC25992 or their variants were cultured to mid-logarithmic phase in tryptic soy broth, brain heart infusion (BHIB), mueller hinton (MHB) or luria broth (LB) and washed once with PBS. […] Thereafter, the number of viable bacteria was determined by plating on diagnostic sensitivity agar. Antimicrobial activity is expressed as the 99.9% killing concentration (LC99.9), i.e., the lowest peptide concentration that killed ≥99.9% of bacteria.

[2] = test system: human erythrocytes; experiment: Hemolysis assay; format: cell-based
Procedure: In the context of the present invention, the test whether a peptide has a hemolytic activity which is lower than the hemolytic activity of peptide OP-145 (acetyl-[…]-amide (SEQ ID NO: 50)) may be performed according to any method known in the art, as for instance disclosed in Avrahami & Shai, 2004. In particular, a 0.5% erythrocyte solution in phosphate-buffered saline is exposed to the respective peptide (e.g. at 1 μM or 10 μM or 20 μM or 50 μM) at 37° C. for 1 h; hemolysis is determined by measuring optical density of the cell supernatants at 415 nm. More specifically, the assay may be performed as follows: Whole venous blood of healthy volunteers is collected in citrate tubes. Erythrocytes are isolated by centrifuging the blood for 10 min at 2,000×g and subsequently washing twice in PBS. […] After 1 h at 37° C. under static conditions, the erythrocyte suspensions are centrifuged and the optical density of the supernatants is determined at 415 nm. The percentage of hemolysis may be calculated relative to a positive control (e.g. 1% Triton X-100).
Hemolysis assay: Whole venous blood of healthy volunteers was collected in citrate tubes. […] After 1 h at 37° C. under static conditions, the erythrocyte suspensions were centrifuged and the optical density of the supernatants was determined at 415 nm. The percentage of hemolysis was calculated relative to the positive control (1% Triton X-100).

[3] = test system: B. subtilis 168 trpC2; experiment: Antimicrobial activity (LC99.9), killing in PBS with plating; format: cell-based, Bacillus subtilis; details: Gram-positive bacteria, lowest peptide concentration that killed ≥99.9% of bacteria, 37° C.
Procedure: as §1, §2

[4] = test system: Gram-negative and Gram-positive bacteria; experiment: Antimicrobial activity, overall statement; format: cell-based; details: against both Gram-negative and Gram-positive bacteria
Procedure: (§3) Antimicrobial activity: S. aureus JAR060131, Enterococcus hirae ATCC 10541, Bacillus subitlis 168C trpC2, Escherichia coli ATCC25992 or their variants were cultured to mid-logarithmic phase in tryptic soy broth, brain heart infusion (BHIB), mueller hinton (MHB) or luria broth (LB) and washed once with PBS. Approximately 1×10^6 CFU/ml of PBS were incubated with peptide (final concentrations: 0-102.4 μM) for 0-2 h at 37° C. under shaking conditions. Thereafter, the number of viable bacteria was determined by plating on diagnostic sensitivity agar. Antimicrobial activity is expressed as the 99.9% killing concentration (LC99.9), i.e., the lowest peptide concentration that killed ≥99.9% of bacteria.

[5] = test system: multi-resistant clinical isolates; experiment: Bactericidal activity against multi-resistant clinical isolates (FIG. 4); format: cell-based; details: 1 h treatment with peptides in presence of PBS
Procedure: Bactericidal activity was tested (for 1 h treatment with peptides) in presence of PBS according to de Breij et al., 2018. Bactericidal activity is expressed as LC99.9%—is the lethal concentration causing death in 99.9% cells. Results are ranges of at least three independent experiments. If no range is given, then LC99.9 values were identical in all experiments.
as §3

## IGKEFKRIVERKWRFLRELVRPLR [SEQ ID NO: 2]
[1]
  LC99.9%: 6.4 µM
[2]
  lysis of human erythrocytes: did not lyse the human erythrocytes
[3]
  LC99.9%: 3.2 µM
[4]
  antimicrobial activity compared to OP-145I12K: improved antimicrobial activity

## IGKKFKRIVRRKKRFLRKLVRPLR [SEQ ID NO: 3]
[5]
  antimicrobial (bactericidal) activity against multi-resistant clinical isolates: Excellent antimicrobial activity
[1]
  LC99.9%: 3.2 µM
[2]
  lysis of human erythrocytes: did not lyse the human erythrocytes
[3]
  LC99.9%: 3.2 µM
[4]
  antimicrobial activity compared to OP-145I12K: improved antimicrobial activity
